Like-named read-outs stand apart in the source and are kept apart here.
Key:
CD19 CAR T cells = experiment: CAR T cell cytokine production (Luminex) under CD19 K562, KIP-1 or CD2/3/28 stimulation; conditions: 72 h
Method: Cryopreserved healthy donor CLP CD19 CAR T cells were thawed and rested overnight in 100 U/ml of IL-2 at 1×10^6/ml. 2.5×10^5 CD19 CART cells were plated in 96-well RB plate wells in a total volume of 200 μl of R10 culture media. […] CD19 CART cell cytokine production was allowed to proceed through 72 hours in the presence of stimulator and JAKi or steroid. Following 72 h of culture, 100 μl of the cell supernatant of each well were harvested and stored at −80° C. for later Luminex/Bioplex-200 cytokine analysis. Briefly, stored supernatants were thawed and 50 μl of the sample was assayed for cytokines using a ThermoFisher Procarta Plex 19-plex human cytokine assay kit (ThermoFisher, Carlsbad, CA) according to kit manufacturer's instructions and detected using a BioRad Bioplex-200 instrument. The data points generated from the luminex cytokine assay were transferred to a GraphPad PRISM IC50 dose-response curve analysis to generate IC50 or potency values for the JAKi's and steroids tested.

in vitro = conditions: human, CAR-T cells
CAR-T cells = experiment: CAR-T cell expansion assay (KIP-1 or CD3/CD28 stimulation); conditions: CD3/CD28
[1] = Clinical pharmacokinetic data converted to in vitro concentrations; conditions: human, in vivo
Description: Given the different potencies of the JAK inhibitors and different pharmacokinetic properties for each drug, it was sought to test each drug at a relevant range of physiological concentrations based on clinical dosing and reported pharmacokinetic data from repeat dose studies. Reported Cmax values in patient sera were converted to in vitro concentrations and adjusted for reported plasma protein binding.

[2] = plasma protein binding, reported; cited from earlier work
[3] = system: phospho-STAT panel (pSTAT3/4/5), CD3+ T cells; experiment: phospho-STAT induction by IL-6, MesoScale Discovery phospho-STAT panel; assay type: cell-based, human; conditions: CD3+ T cells; for pSTAT3: MSD signal (No stim. 689, IL-6 alone 33641); for pSTAT4: MSD signal (No stim. 1964, IL-6 alone 15405); for pSTAT5: MSD signal (No stim. 9210, IL-6 alone 17743)
Method: CD19 CAR-T, PBMC or CD3+ T cells (AllCells) were thawed and rested 0/N at 37° C. in R10 media. Cells were seeded at 700,000 cells/well and were either untreated or treated with 100 ng/ml IL6+drug at indicated concentrations for 20 minutes at 37° C. The cells were then washed with cold PBS and followed by 60 μl of Tris lysis buffer (provided by MSD) for 30 minutes on ice. Lysates were collected by spin down for 10 minutes at >10,000 rpm. 25 μl/well per condition was used for MesoScale Discovery (MSD) assay using the phospho-STAT panel (pSTAT3/4/5) from MesoScale Discovery following the manufacturer's protocol. pSTAT panel plates were blocked with 150 μl of blocker A solution for 1 hr at RT with shaking. Plates were washed three times with 1× Tris wash buffer. 25 μl of lysate samples were added per well, incubated 2 hr at room temperature or at 4° C. overnight. Plates were washed 3 times with 1× tris wash buffer and then 25 μl of detection antibody solution were added to each well and incubated for 1 hr at room temperature with shaking. Plates were washed and 1× read buffer added to each well and plates were read on the MSD instrument.

[4] = system: NALM6.GFP.LUC.CD19 target cells
Method: The percent cytotoxicity to NALM6.GFP.LUC.CD19 target cells was measured by luciferase detection at each round.
In one embodiment, a serial killing assay is a combination of cell killing and how long it takes for CAR T cells to get exhausted under repeated stimulation. In one embodiment, a serial killing assay is a surrogate measure for CAR T cell persistence in vivo.

[5] = 100 ng/ml IL-6 + drug 10 uM, 20 min

C[C@H]1C[C@@H]2[C@H]([C@@H](O)C[C@@]3(C)[C@H]2CC[C@]3(O)C(=O)CO)[C@@]2(C)C=CC(=O)C=C12 [Methlyprednisolone]
Suppression of cytokine production, IL-6 (IC50) (CD19 CAR T cells; CD3/CD28 stimulation): Suppress
Suppression of cytokine production, MCP-1, % inh. (CD19 CAR T cells; CD3/CD28 stimulation): >80% inh.
Suppression of cytokine production, TNFa, % inh. (CD19 CAR T cells; CD3/CD28 stimulation): >50% inh.
Suppression of cytokine production, IL-6 (IC50) (CD19 CAR T cells; K562-CD19 stimulation): Suppress
Suppression of cytokine production, MCP-1 (IC50) (CD19 CAR T cells; K562-CD19 stimulation): Suppress
Suppression of cytokine production, MIG (IC50) (CD19 CAR T cells; K562-CD19 stimulation): Suppress
Suppression of cytokine production, TNFa (IC50) (CD19 CAR T cells; K562-CD19 stimulation): Suppress
Suppression of cytokine production, IL-6, % inh. (CD19 CAR T cells; KIP-1 stimulation): 66% inh.
Suppression of cytokine production, IL-10, % inh. (CD19 CAR T cells; KIP-1 stimulation): 50% inh.
Suppression of cytokine production, MCP-1, % inh. (CD19 CAR T cells; KIP-1 stimulation): 66% inh.
Suppression of cytokine production, MIG, % inh. (CD19 CAR T cells; KIP-1 stimulation): 50% inh.
Suppression of cytokine production, TNFa, % inh. (CD19 CAR T cells; KIP-1 stimulation): 75% inh.
IC50 (CD19 CAR T cells; read-out: Suppression of cytokine production, GMCSF (IC50), CD3/CD28 stimulation): > 10 µM
IC50 (CD19 CAR T cells; read-out: Suppression of cytokine production, GMCSF (IC50), KIP-1 stimulation): > 10 µM
IC50 (CD19 CAR T cells; read-out: Suppression of cytokine production, GzB (IC50), CD3/CD28 stimulation): > 10 µM
IC50 (CD19 CAR T cells; read-out: Suppression of cytokine production, GzB (IC50), KIP-1 stimulation): > 10 µM
IC50 (CD19 CAR T cells; read-out: Suppression of cytokine production, IFNg (IC50), CD3/CD28 stimulation): > 10 µM
IC50 (CD19 CAR T cells; read-out: Suppression of cytokine production, IFNg (IC50), KIP-1 stimulation): > 10 µM
IC50 (CD19 CAR T cells; read-out: Suppression of cytokine production, IL-2Ra (IC50), CD3/CD28 stimulation): > 10 µM
IC50 (CD19 CAR T cells; read-out: Suppression of cytokine production, IL-2Ra (IC50), K562-CD19 stimulation): > 10 µM
IC50 (CD19 CAR T cells; read-out: Suppression of cytokine production, IL-2Ra (IC50), KIP-1 stimulation): > 10 µM
IC50 (CD19 CAR T cells; read-out: Suppression of cytokine production, IL-8 (IC50), CD3/CD28 stimulation): > 10 µM
IC50 (CD19 CAR T cells; read-out: Suppression of cytokine production, IL-8 (IC50), K562-CD19 stimulation): > 10 µM
IC50 (CD19 CAR T cells; read-out: Suppression of cytokine production, IL-8 (IC50), KIP-1 stimulation): > 10 µM
IC50 (CD19 CAR T cells; read-out: Suppression of cytokine production, IL-10 (IC50), CD3/CD28 stimulation): > 10 µM
IC50 (CD19 CAR T cells; read-out: Suppression of cytokine production, MIG (IC50), CD3/CD28 stimulation): > 10 µM
IC50 (CD19 CAR T cells; read-out: Suppression of cytokine production, MIP-1a (IC50), CD3/CD28 stimulation): > 10 µM
IC50 (CD19 CAR T cells; read-out: Suppression of cytokine production, MIP-1a (IC50), KIP-1 stimulation): > 10 µM
IC50 (CD19 CAR T cells; read-out: Suppression of cytokine production, MIP-1b (IC50), CD3/CD28 stimulation): > 10 µM
IC50 (CD19 CAR T cells; read-out: Suppression of cytokine production, MIP-1b (IC50), KIP-1 stimulation): > 10 µM
IC50 (CD19 CAR T cells; read-out: Suppression of cytokine production, Perforin (IC50), CD3/CD28 stimulation): > 10 µM
IC50 (CD19 CAR T cells; read-out: Suppression of cytokine production, Perforin (IC50), KIP-1 stimulation): > 10 µM

C[C@H]1C[C@@H]2[C@H]([C@@H](O)C[C@@]3(C)[C@H]2CC[C@]3(O)C(=O)CO)[C@@]2(C)C=CC(=O)C=C12 [methylprednisolone]
viability at 0 day, 1000 nM (in vitro): 75%
viability at 0 day, 5000 nM (in vitro): 75%
viability at 4 day, 1000 nM (in vitro): 58.1%
viability at 4 day, 5000 nM (in vitro): 49.4%
viability at 8 day, 1000 nM (in vitro): 69.1%
viability at 8 day, 5000 nM (in vitro): 66%
viability at 12 day, 1000 nM (in vitro): 76.3%
viability at 12 day, 5000 nM (in vitro): 71.9%
% viability (CAR-T cells; dose 1000 nM, day 4): 44.3%
% viability (CAR-T cells; dose 1000 nM, day 12): 62.6%
% viability (CAR-T cells; dose 5000 nM, day 4): 46.6%
% viability (CAR-T cells; dose 5000 nM, day 8): 59.1%
% viability (CAR-T cells; dose 5000 nM, day 12): 58.9%
PPB adj. in Vitro concentration (free) [1]: 670 nM
PPB adj. in Vitro concentration (total) [1]: 2.56 µM
clinically relevant dose level (in vitro concentration) [1]: ~2.5 µM
Cmax ([1]; 100 mg): 960 ng/mL
Cmax (ng/ml) (free) ([1]; 100 mg): 251 ng/mL
Protein binding [2]: 78%
pSTAT3 [3, 5]: 25867
pSTAT4 [3, 5]: 11225
pSTAT5 [3, 5]: 14781
pSTAT3 ([3]; IL-6 + drug 0.125 uM): 30520
pSTAT4 ([3]; IL-6 + drug 0.125 uM): 14740
pSTAT5 ([3]; IL-6 + drug 0.125 uM): 18739
pSTAT3 ([3]; IL-6 + drug 0.5 uM): 30901
pSTAT4 ([3]; IL-6 + drug 0.5 uM): 14903
pSTAT5 ([3]; IL-6 + drug 0.5 uM): 20208
pSTAT3 ([3]; IL-6 + drug 1 uM): 28287
pSTAT4 ([3]; IL-6 + drug 1 uM): 14989
pSTAT5 ([3]; IL-6 + drug 1 uM): 18668
pSTAT3 ([3]; IL-6 + drug 5 uM): 25433
pSTAT4 ([3]; IL-6 + drug 5 uM): 11282
pSTAT5 ([3]; IL-6 + drug 5 uM): 15142
impact on CAR-T serial killing (percent cytotoxicity) [4]: differential impacts

From patent US12252701B2, “Chimeric antigen receptor T cell therapy” (KITE PHARMA, INC., priority 2020, dated 2025)
